Literature values as cited in publication PMC6172068 (Cancer Science, 2018).

Legend:
[1] = system: FLT3 mutation-positive R/R AML; conditions: cited from earlier work
AML [2] = conditions: single agent; cited from earlier work
AML [3] = conditions: sorafenib plus intensive chemotherapy, patients aged <60 years; cited from earlier work

Question: With `CC1(COc2ccc3c(c2)ncn3-c2ccc3cccc(N4CCC(N)CC4)c3n2)COC1` [crenolanib] as the compound, how does the antileukemic activity [1] read?
Answer: strong antileukemic activity

Question: Which CR (AML [2]) does the source give for `CO[C@@H]1[C@H](N(C)C(=O)c2ccccc2)C[C@H]2O[C@]1(C)n1c3ccccc3c3c4c(c5c6ccccc6n2c5c31)C(=O)NC4` [midostaurin] here?
Answer: not achieved

Question: With `CNC(=O)c1cc(Oc2ccc(NC(=O)Nc3ccc(Cl)c(C(F)(F)F)c3)cc2)ccn1` [sorafenib] as the compound, how does the “3-year event-free survival rate” value (AML [3]) read?
Answer: 40%
